{
  "source": "patent US10196685B2",
  "about": "“Methods and systems for delivering process gases to critical process applications” (RASIRC, INC., priority 2014, dated 2019)",
  "key": {"E. coli [1]": {"system": "E. coli", "conditions": "1.7×10^7 cfu E. coli per spot; gas-phase H2O2 505 ppm, H2O 2122 ppm, 60 minutes, 25° C.", "from_the_text": "The CDA gas pressure was maintained at 25 psig with the pressure regulator. A 0.01 micron filter removed particulates from the gas stream. The MFCs controlled the flow of the carrier gas streams and the dilution gas stream. […] The water temperature was used to control the output of the humidifier. The valves (V-1, V-2, and V-3) were used to send either the dry CDA gas stream, the RHS gas stream, and/or SGD gas stream through the furnace or out to vent. […] TC-3 and TC-4 were used to measure the gas temperature downstream of the SGD. The furnace was used to keep the bacterial samples at temperature to prevent condensation. TC-5 was used to measure the temperature in the quartz furnace. TC-6 was used to measure the gas temperature downstream of the furnace. A pressure gauge (PG-1) was used to monitor the pressure in the furnace. A Teledyne Prototype Analyzer was used to determine stability of the peroxide gas and its temperature was kept at 120° C. […] The boxed sections show the individual heat traced control zones for this experiment.\n(§1) The initial test manifold was set to the following temperatures: • Zone 1=72° C. (Outlet temperature of SGD) • Zone 3=90° C.\nThe dilution gas flow rate was set to 5 slm, the RHS carrier gas to 180 sccm, and the SGD carrier gas flow to 1 slm. The RHS was then set to a 35° C. dew point, and the SGD to 30° C., running both gas streams to vent. […]"}, "bacterial samples": {"system": "bacterial samples", "conditions": "visible mist or fog, droplets condensed onto the sample"}, "bovine genomic DNA": {"system": "bovine genomic DNA", "conditions": "H2O2 505 ppm, 5 hours; for Average Decrease %: three replicates", "description": "as §1\nThe dilution gas flow rate was set to 5 slm, the RHS carrier gas to 180 sccm, and the SGD carrier gas flow to 1 slm. The RHS was then set to a 35° C. dew point, and the SGD to 30° C., running both gas streams to vent. The furnace and the heat-traced line temperatures were adjusted to achieve the desired gas temperatures. The SGD and RHS systems were allowed to stabilize. Samples were treated and processed as described in the following Examples.\nA PCR plate to be used for quantifying amplifiable DNA was prepared with three replicates at each target input level (i.e., ranging from 0 ng to 1,000 ng). In each instance, measured aliquots of an aqueous solution of bovine genomic DNA were added to individual wells of the plate, and then dried. […] The chamber was initially purged for 15 minutes with CDA. […] Finally, the chamber was purged for an additional 15 minutes with CDA. Each well containing treated sample next received an aliquot of liquid reagents needed to carry out PCR amplification reactions. These reagents included: a pair of unlabeled DNA primers capable of amplifying the template; nucleotide triphosphates; buffer and salts; a dual-labeled hydrolysis probe specific for the DNA amplification product; and a thermostable DNA polymerase having 5′-3′ exonuclease activity. Amplification reactions were carried out using procedures familiar to those of ordinary skill in the art, and the appearance of fluorescent signals monitored as a function of time in a real-time format."}, "E. coli [2]": {"system": "E. coli", "description": "(§2) A 0.01 micron filter removed particulates from the gas stream. […] The water temperature was used to control the output of the humidifier. […] The furnace was used to keep the bacterial samples at temperature to prevent condensation. […] The boxed sections show the individual heat traced control zones for this experiment.\nas §1"}, "S. epi": {"system": "S. epi", "description": "as §2, §1"}},
  "note": "Where “and” joins values, the source holds several entries; their conditions need not be identical. Equal entries are not always repeated. Where two headings read alike, the source gives them in different places.",
  "data": [
    {"smiles": "OO", "note": "[hydrogen peroxide gas, hydrogen peroxide]", "values": [
      {"measurement": "Growth on tryptic soy agar plates after H202 treatment (bacterial slides)", "setting": "E. coli [1]", "result": "No Growth"},
      {"measurement": "Effect on the number of viable organisms", "setting": "bacterial samples", "result": "did not significantly reduce the number of viable organisms"},
      {"measurement": "Decrease %", "setting": "bovine genomic DNA; Input 1 ng DNA, 25° C.", "result": 100, "unit": "%"},
      {"measurement": "Remaining %", "setting": "bovine genomic DNA; Input 1 ng DNA, 25° C.", "result": 0, "unit": "%"},
      {"measurement": "Calculated ng After Treatment", "setting": "bovine genomic DNA; Input 1 ng DNA, H2O 2122 ppm, 25° C.", "result": 0, "unit": "ng"},
      {"measurement": "Average Decrease %", "setting": "bovine genomic DNA; Input 1 ng DNA, 25° C.", "result": 100.00, "unit": "%"},
      {"measurement": "Decrease %", "setting": "bovine genomic DNA; Input 10 ng DNA, 25° C.", "result": "98.55% and 99.28% and 94.5%"},
      {"measurement": "Average Decrease %", "setting": "bovine genomic DNA; Input 10 ng DNA, 25° C.", "result": 97.44, "unit": "%"},
      {"measurement": "Decrease %", "setting": "bovine genomic DNA; Input 100 ng DNA, 25° C.", "result": "99.19% and 99.92% and 99.978%"},
      {"measurement": "Average Decrease %", "setting": "bovine genomic DNA; Input 100 ng DNA, 25° C.", "result": 99.70, "unit": "%"},
      {"measurement": "Decrease %", "setting": "bovine genomic DNA; Input 1000 ng DNA, 25° C.", "result": "99.9957% and 99.9953% and 99.967%"},
      {"measurement": "Average Decrease %", "setting": "bovine genomic DNA; Input 1000 ng DNA, 25° C.", "result": 99.99, "unit": "%"},
      {"measurement": "Reduction of amplifiable DNA", "setting": "bovine genomic DNA; sample containing the greatest amount of starting material", "result": "about 4 logs"},
      {"measurement": "Amplifiable DNA after treatment", "setting": "bovine genomic DNA; sample containing the lowest amount of starting material", "result": "completely undetectable"},
      {"measurement": "CONCENTRATION (E. coli in device with H2O2)", "setting": "E. coli [2]; hydrogen peroxide gas 30 minutes, average H2O2 output 561±27 ppm, ≥25° C., stock 2.5 × 10^7", "result": "NO GROWTH"},
      {"measurement": "Sterilization result in words", "setting": "E. coli [2]; tests of FIGS. 32 and 33, 30 minutes H2O2 gas", "result": "completely sterilized"},
      {"measurement": "CONCENTRATION (S. epi in device with H2O2)", "setting": "S. epi; 5 hour H2O2 exposure, average H2O2 output 518±14 ppm, stock 3.5 × 10^6", "result": "NO GROWTH"},
      {"measurement": "Sterilization result in words", "setting": "S. epi; fifth experiment, 5 hour H2O2 exposure, 518±14 ppm", "result": "sterilized"},
      {"measurement": "CONCENTRATION (S. epi in device with H2O2)", "setting": "S. epi; hydrogen peroxide gas 30 minutes, average H2O2 output 561±27 ppm, ≥25° C., stock 5.0 × 10^6, contamination believed", "result": "~10^4 to 10^5 estimated"}
    ]}
  ]
}
